According to PubChem BioAssay (NCI):
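48-hour exposure; five concentrations; linearly interpolated endpoints. Definition used: TGI = concentration required for complete inhibition of growth.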

Experiments:
Test in all cases: inhibition of tumour cell growth, NCI panel, 48 h
KM12 colon = test system: KM12 colon
NCI-H460 lung = test system: NCI-H460 lung
OVCAR-5 ovarian = test system: OVCAR-5 ovarian
LOX IMVI melanoma = test system: LOX IMVI melanoma
ACHN renal = test system: ACHN renal
IGROV1 ovarian = test system: IGROV1 ovarian
SF-539 CNS = test system: SF-539 CNS
SR leukemia = test system: SR leukemia
MALME-3M melanoma = test system: MALME-3M melanoma
SK-MEL-2 melanoma = test system: SK-MEL-2 melanoma
SK-MEL-5 melanoma = test system: SK-MEL-5 melanoma
CAKI-1 renal = test system: CAKI-1 renal
A549 NSCLC = test system: A549 NSCLC
HCT-116 colon = test system: HCT-116 colon
OVCAR-8 ovarian = test system: OVCAR-8 ovarian
DLD-1 colon = test system: DLD-1 colon
HCT-15 colon = test system: HCT-15 colon
SF-268 CNS = test system: SF-268 CNS
M14 melanoma = test system: M14 melanoma
DU-145 prostate = test system: DU-145 prostate
U251 CNS = test system: U251 CNS
SN12C renal = test system: SN12C renal
NCI-H226 lung = test system: NCI-H226 lung
A498 renal = test system: A498 renal
KM20L2 colon = test system: KM20L2 colon
SNB-19 CNS = test system: SNB-19 CNS
SF-295 CNS = test system: SF-295 CNS
HOP-62 NSCLC = test system: HOP-62 NSCLC
786-0 renal = test system: 786-0 renal
SW-620 colon = test system: SW-620 colon
MOLT-4 leukemia = test system: MOLT-4 leukemia
OVCAR-3 ovarian = test system: OVCAR-3 ovarian
M19-MEL melanoma = test system: M19-MEL melanoma
HT29 colon = test system: HT29 colon
TK-10 renal = test system: TK-10 renal
CCRF-CEM leukemia = test system: CCRF-CEM leukemia
SK-MEL-28 melanoma = test system: SK-MEL-28 melanoma
XF 498 CNS = test system: XF 498 CNS
RXF 393 renal = test system: RXF 393 renal
K-562 leukemia = test system: K-562 leukemia
OVCAR-4 ovarian = test system: OVCAR-4 ovarian
UO-31 renal = test system: UO-31 renal
SNB-75 CNS = test system: SNB-75 CNS
RPMI-8226 leukemia = test system: RPMI-8226 leukemia
HOP-92 NSCLC = test system: HOP-92 NSCLC
EKVX NSCLC = test system: EKVX NSCLC
COLO 205 colon = test system: COLO 205 colon
NCI-H23 lung = test system: NCI-H23 lung
LXFL 529 NSCLC = test system: LXFL 529 NSCLC
SNB-78 CNS = test system: SNB-78 CNS
UACC-257 melanoma = test system: UACC-257 melanoma
NCI-H522 lung = test system: NCI-H522 lung
DMS 273 small cell lung = test system: DMS 273 small cell lung
UACC-62 melanoma = test system: UACC-62 melanoma
HL-60(TB) leukemia = test system: HL-60(TB) leukemia
SK-OV-3 ovarian = test system: SK-OV-3 ovarian
HCC-2998 colon = test system: HCC-2998 colon
HOP-18 NSCLC = test system: HOP-18 NSCLC
DMS 114 small cell lung = test system: DMS 114 small cell lung

CC(=O)N/C=C/c1cc(O)ccc1O
TGI (KM12 colon): > 100 µM | TGI (NCI-H460 lung): > 74.6 µM | TGI (OVCAR-5 ovarian): 38.1 µM | TGI (LOX IMVI melanoma): 45.6 µM | TGI (ACHN renal): 37.4 µM | TGI (IGROV1 ovarian): > 68.1 µM | TGI (SF-539 CNS): > 66.5 µM | TGI (SR leukemia): 70.5 µM | TGI (MALME-3M melanoma): > 60.6 µM | TGI (SK-MEL-2 melanoma): 55.1 µM | TGI (SK-MEL-5 melanoma): > 67.5 µM | TGI (CAKI-1 renal): 41.7 µM | TGI (A549 NSCLC): > 76.4 µM | TGI (HCT-116 colon): 47.4 µM | TGI (OVCAR-8 ovarian): > 85.9 µM | TGI (DLD-1 colon): 48.2 µM | TGI (HCT-15 colon): > 72.9 µM | TGI (SF-268 CNS): 49.8 µM | TGI (M14 melanoma): 48.2 µM | TGI (DU-145 prostate): > 100 µM | TGI (U251 CNS): > 68.6 µM | TGI (SN12C renal): 46.9 µM | TGI (NCI-H226 lung): > 77.4 µM | TGI (A498 renal): 98.1 µM | TGI (KM20L2 colon): > 67.7 µM | TGI (SNB-19 CNS): > 72.4 µM | TGI (SF-295 CNS): 48.1 µM | TGI (HOP-62 NSCLC): > 55.2 µM | TGI (786-0 renal): 48.1 µM | TGI (SW-620 colon): 35.4 µM | TGI (MOLT-4 leukemia): 37.1 µM | TGI (OVCAR-3 ovarian): 29.8 µM | TGI (M19-MEL melanoma): 46.7 µM | TGI (HT29 colon): 48.6 µM | TGI (TK-10 renal): 54.5 µM | TGI (CCRF-CEM leukemia): 75.3 µM | TGI (SK-MEL-28 melanoma): 48.6 µM | TGI (XF 498 CNS): 32.3 µM | TGI (RXF 393 renal): 49.3 µM | TGI (K-562 leukemia): > 91.7 µM | TGI (OVCAR-4 ovarian): 47.9 µM | TGI (UO-31 renal): 46.2 µM | TGI (SNB-75 CNS): > 81.9 µM | TGI (RPMI-8226 leukemia): > 89.9 µM | TGI (HOP-92 NSCLC): 36.8 µM | TGI (EKVX NSCLC): > 73.6 µM | TGI (COLO 205 colon): 45.8 µM | TGI (NCI-H23 lung): 56.1 µM | TGI (LXFL 529 NSCLC): 29 µM | TGI (SNB-78 CNS): > 71.8 µM | TGI (UACC-257 melanoma): 47.9 µM | TGI (NCI-H522 lung): 7.19 µM | TGI (DMS 273 small cell lung): > 100 µM | TGI (UACC-62 melanoma): 47.1 µM | TGI (HL-60(TB) leukemia): 54 µM | TGI (SK-OV-3 ovarian): > 70.6 µM | TGI (HCC-2998 colon): > 76.2 µM | TGI (HOP-18 NSCLC): 35.2 µM

CCC12C=CCN3CCC4(c5cc(C6(C(=O)OC)CCCCCc7c6[nH]c6ccccc76)c(OC)cc5N(C)C4C(O)(C(=O)OC)C1OC(C)=O)C32 (stereo unspecified)
TGI (KM12 colon): 5.93 µM | TGI (NCI-H460 lung): 9.92 µM | TGI (ACHN renal): 3.3 µM | TGI (IGROV1 ovarian): 5.23 µM | TGI (SF-539 CNS): 4.63 µM | TGI (SR leukemia): 7.65 µM | TGI (MALME-3M melanoma): 3.84 µM | TGI (SK-MEL-2 melanoma): 3.17 µM | TGI (CAKI-1 renal): 7.46 µM | TGI (DMS 114 small cell lung): 7.09 µM | TGI (A549 NSCLC): 11.7 µM | TGI (HCT-116 colon): 13 µM | TGI (OVCAR-8 ovarian): 17.2 µM | TGI (HCT-15 colon): 5.29 µM | TGI (M14 melanoma): 6.75 µM | TGI (U251 CNS): 5.68 µM | TGI (SN12C renal): 12.8 µM | TGI (NCI-H226 lung): 6.65 µM | TGI (A498 renal): 7.39 µM | TGI (KM20L2 colon): 4.76 µM | TGI (SNB-19 CNS): 12.1 µM | TGI (SF-295 CNS): 5.3 µM | TGI (HOP-62 NSCLC): 13.2 µM | TGI (786-0 renal): 4.89 µM | TGI (SW-620 colon): 17.5 µM | TGI (MOLT-4 leukemia): 9.19 µM | TGI (OVCAR-3 ovarian): 15.5 µM | TGI (M19-MEL melanoma): 6.93 µM | TGI (HT29 colon): 2.06 µM | TGI (TK-10 renal): 5.5 µM | TGI (CCRF-CEM leukemia): 5.49 µM | TGI (SK-MEL-28 melanoma): 4.35 µM | TGI (XF 498 CNS): 6.44 µM | TGI (RXF 393 renal): 3.52 µM | TGI (K-562 leukemia): > 100 µM | TGI (OVCAR-4 ovarian): 12.3 µM | TGI (UO-31 renal): 7.25 µM | TGI (SNB-75 CNS): 7.8 µM | TGI (RPMI-8226 leukemia): 6.97 µM | TGI (HOP-92 NSCLC): 4.76 µM | TGI (EKVX NSCLC): 14 µM | TGI (COLO 205 colon): 8.85 µM | TGI (LXFL 529 NSCLC): 5.54 µM | TGI (SNB-78 CNS): 9.48 µM | TGI (UACC-62 melanoma): 3.43 µM | TGI (HL-60(TB) leukemia): 5.81 µM | TGI (HCC-2998 colon): 3.97 µM | TGI (HOP-18 NSCLC): 4.86 µM
